Results on 35 compounds are retold here after BindingDB's records for patent US12415785 (Ctxt, 2025).

Usually Kd stands for the free concentration of one partner at which half of the binding sites on the other are occupied at equilibrium, for simple one-to-one binding. Read a low Kd as higher affinity.

The target in the assay is T1, Stimulator of interferon genes protein [1-379,R71H,G230A,H232R,R293Q] (Homo sapiens, UniProt Q86WV6, G230A/H232R/R293Q/R71H).
T1 construct: 1-379
T1 sequence (Q86WV6 whole entry R71H/G230A/H232R/R293Q, looked up): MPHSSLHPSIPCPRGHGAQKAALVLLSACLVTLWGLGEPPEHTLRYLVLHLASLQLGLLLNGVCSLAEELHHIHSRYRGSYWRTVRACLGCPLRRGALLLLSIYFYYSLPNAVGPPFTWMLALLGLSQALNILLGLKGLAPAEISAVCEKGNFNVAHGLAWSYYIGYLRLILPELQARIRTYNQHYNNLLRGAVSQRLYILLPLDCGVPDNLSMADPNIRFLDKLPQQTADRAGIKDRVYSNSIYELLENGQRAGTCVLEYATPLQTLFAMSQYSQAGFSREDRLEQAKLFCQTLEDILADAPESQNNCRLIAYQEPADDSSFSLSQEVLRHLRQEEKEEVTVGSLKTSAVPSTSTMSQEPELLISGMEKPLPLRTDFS
Description: Surface Plasmon Resonance (SPR). How it is done:
Briefly, approximately 20 nmol of recombinant STING protein in 1×TBS buffer (25 mM Tris-HCl, pH 7.5, 150 mM NaCl, 5 mM DTT) was mixed with of EZ-Link™ Sulfo-NHS-LC-LC-Biotin (Thermofisher Scientific, cat #21338) at a molar ratio of 1 to 0.6 and incubated on ice for 2 hours. To remove any unreacted biotin reagent, protein/biotin mixture was passed through a Superdex 75 (10/300 GL) column equilibrated with 10 mM HEPES, pH7.4, 150 mM NaCl, 5 mM DTT, 5%[v/v] glycerol. A protein peak containing biotinylated huSTING protein was collected and stored in aliquots at −80° C.Streptavidin was simultaneously immobilized in all four channels of a CM5 sensor chip docked in a Biacore instrument (either Biacore S200 or Biacore T200, GE Healthcare) as described previously (Zender 2013). Minimally biotinylated STING protein was captured onto a streptavidin coated chip surface at 8° C. in SPR binding buffer (50 mM HEPES, pH 7.4, 150 mM NaCl, 2%[v/v] DMSO) by gradually injecting in a single channel at a constant flow-rate of 2 μL/min until desired capture level was achieved, typically 3000 to 7000 RU (1 RU=1 pg/mm2).All binding experiments were performed at 8° C. in SPR binding buffer. To determine binding affinity, compound interaction with immobilized STING protein was analysed using dose-response experiments. Fresh 10 mM DMSO solutions of compound were diluted directly into SPR binding buffer typically to a concentration of 50 μM and then further diluted 2-fold or 3-fold aiming for either a 5- or 7-point concentration series range. Each ligand concentration series was injected at a constant flow rate of 60 μL/min with a 90 second association and a 180 second dissociation time.
The compound `COc1c(C(N)=O)ccc2c1nc(-c1ccc(Cl)cc1C(=O)O)n2CCn1c(-c2ccc(Cl)cc2C(=O)O)nc2c(OC)c(C(N)=O)ccc21` [US12415785, Example 1] returned a Kd of 16.6 µM.
With `NC(=O)c1ccc2c(c1)nc(-c1ccccc1C(=O)O)n2CCn1c(-c2ccccc2C(=O)O)nc2cc(C(N)=O)ccc21` [US12415785, Example 2], the affinity, expressed as Kd, was 67 µM.
Consider `NC(=O)c1ccc2c(c1)nc(-c1ccccc1-c1nn[nH]n1)n2CCn1c(-c2ccccc2-c2nnn[nH]2)nc2cc(C(N)=O)ccc21` [US12415785, Example 5], for which binding was characterised by a dissociation constant (Kd) of 19.3 µM.
In turn, `COc1c(C(N)=O)ccc2c1nc(-c1ccccc1-c1nn[nH]n1)n2CCn1c(-c2ccccc2-c2nn[nH]n2)nc2c(OC)c(C(N)=O)ccc21` [US12415785, Example 6] gave a Kd of 11.9 µM.
`COc1c(C(N)=O)ccc2c1nc(-c1ccc(Cl)cc1-c1nn[nH]n1)n2CCn1c(-c2ccc(Cl)cc2-c2nn[nH]n2)nc2c(OC)c(C(N)=O)ccc21` [US12415785, Example 9] showed a Kd of 2.66 µM.
`COc1c(C(N)=O)ccc2c1nc(-c1c(F)cccc1C(=O)O)n2CCn1c(-c2c(F)cccc2C(=O)O)nc2c(OC)c(C(N)=O)ccc21` [US12415785, Example 10] yielded a Kd of 0.183 µM.
Consider `COc1c(C(N)=O)ccc2c1nc(-c1c(F)cc(Cl)cc1C(=O)O)n2CCn1c(-c2c(F)cc(Cl)cc2C(=O)O)nc2c(OC)c(C(N)=O)ccc21` [US12415785, Example 11], for which the Kd stood at 0.078 µM.
`COc1c(C(N)=O)ccc2c1nc(-c1cc(F)c(F)cc1C(=O)O)n2CCn1c(-c2cc(F)c(F)cc2C(=O)O)nc2c(OC)c(C(N)=O)ccc21` [US12415785, Example 15] came in with a Kd of 6.34 µM.
`COc1c(C(N)=O)ccc2c1nc(-c1c(F)cc(F)cc1C(=O)O)n2CCn1c(-c2c(F)cc(F)cc2C(=O)O)nc2c(OC)c(C(N)=O)ccc21` [US12415785, Example 16] displayed a Kd of 0.166 µM.
`COc1c(C(N)=O)ccc2c1nc(-c1ccc(Cl)cc1-c1n[nH]c(=O)o1)n2CCn1c(-c2ccc(Cl)cc2-c2n[nH]c(=O)o2)nc2c(OC)c(C(N)=O)ccc21` [US12415785, Example 17]: the Kd was 0.416 µM.
`COc1c(C(N)=O)cc(F)c2c1nc(-c1c(F)cc(F)cc1C(=O)O)n2CCn1c(-c2c(F)cc(F)cc2C(=O)O)nc2c(OC)c(C(N)=O)cc(F)c21` [US12415785, Example 18] yielded a Kd of 0.144 µM.
Compound `COc1c(C(N)=O)ccc2c1nc(-c1c(I)cccc1C(=O)O)n2CCn1c(-c2c(I)cccc2C(=O)O)nc2c(OC)c(C(N)=O)ccc21` [US12415785, Example 19.1] displayed a Kd of 0.002 µM.
Compound `COc1c(C(N)=O)cc(F)c2c1nc(-c1ccc(Cl)cc1C(=O)O)n2CCn1c(-c2ccc(Cl)cc2C(=O)O)nc2c(OC)c(C(N)=O)cc(F)c21` [US12415785, Example 20] displayed a Kd of 12.8 µM.
With `COC(=O)c1c(Br)cccc1-c1nc2c(OC)c(C(N)=O)ccc2n1CCn1c(-c2cccc(Br)c2C(=O)OC)nc2c(OC)c(C(N)=O)ccc21` [US12415785, Example 21], the Kd was found to be 1.09 µM.
To `COc1c(C(N)=O)ccc2c1nc(-c1c(Cl)cccc1C(=O)O)n2CCn1c(-c2c(Cl)cccc2C(=O)O)nc2c(OC)c(C(N)=O)ccc21` [US12415785, Example 22] belongs 0.002 µM; to `COc1c(C(N)=O)ccc2c1nc(-c1c(Cl)cccc1-c1nn[nH]n1)n2CCn1c(-c2c(Cl)cccc2-c2nn[nH]n2)nc2c(OC)c(C(N)=O)ccc21` [US12415785, Example 23], 0.002 µM; to `COc1c(C(N)=O)ccc2c1nc(-c1ccc(Cl)cc1-c1cn[nH]n1)n2CCn1c(-c2ccc(Cl)cc2-c2cn[nH]n2)nc2c(OC)c(C(N)=O)ccc21` [US12415785, Example 24], 22 µM.
Consider `COc1c(C(N)=O)ccc2c1nc(-c1ccc(C)cc1C(=O)O)n2CCn1c(-c2ccc(C)cc2C(=O)O)nc2c(OC)c(C(N)=O)ccc21` [US12415785, Example 25], for which the Kd was determined as 19.3 µM.
Take `COc1c(C(N)=O)ccc2c1nc(-c1cc(C)ccc1C(=O)O)n2CCn1c(-c2cc(C)ccc2C(=O)O)nc2c(OC)c(C(N)=O)ccc21` [US12415785, Example 26]: the Kd is 32.5 µM.
To `NC(=O)c1ccc2c(c1)nc(-c1c(Br)cccc1C(=O)O)n2CCn1c(-c2c(Br)cccc2C(=O)O)nc2cc(C(N)=O)ccc21` [US12415785, Example 29.1] belongs 0.936 µM; to `COc1c(C(N)=O)ccc2c1nc(-c1cnccc1C(=O)O)n2CCn1c(-c2cnccc2C(=O)O)nc2c(OC)c(C(N)=O)ccc21` [US12415785, Example 30], 90 µM; to `COc1c(C(N)=O)ccc2c1nc(-c1ncc(Cl)cc1C(=O)O)n2CCn1c(-c2ncc(Cl)cc2C(=O)O)nc2c(OC)c(C(N)=O)ccc21` [US12415785, Example 31], 55 µM.
`CCc1ccc(-c2nc3c(OC)c(C(N)=O)ccc3n2CCn2c(-c3ccc(CC)cc3C(=O)O)nc3c(OC)c(C(N)=O)ccc32)c(C(=O)O)c1` [US12415785, Example 33] gave a Kd of 78 µM.
On to `COc1c(C(N)=O)ccc2c1nc(-c1ccc(Cl)cc1C(=O)O)n2C/C=C/Cn1c(-c2ccc(Cl)cc2C(=O)O)nc2c(OC)c(C(N)=O)ccc21` [US12415785, Example 34], for which the dissociation constant Kd turned out to be 26 µM.
For the compound `COc1c(C(N)=O)ccc2c1nc(-c1ccc(Cl)cc1C(=O)O)n2CCCn1c(-c2ccc(Cl)cc2C(=O)O)nc2c(OC)c(C(N)=O)ccc21` [US12415785, Example 35], binding was put at a Kd of 35 µM.
`NC(=O)c1ccc2c(c1)nc(-c1ccc(Cl)cc1C(=O)O)n2CCn1c(-c2ccc(Cl)cc2C(=O)O)nc2cc(C(N)=O)ccc21` [US12415785, Example 39] came in with a Kd of 300 µM.
Then `COc1c(C(N)=O)ccc2c1nc(-c1cccc(Cl)c1-c1nn[nH]n1)n2CCn1c(-c2cccc(Cl)c2-c2nn[nH]n2)nc2c(OC)c(C(N)=O)ccc21` [US12415785, Example 40], with 64 µM; and `COc1ccc(-c2nc3c(OC)c(C(N)=O)ccc3n2CCn2c(-c3ccc(OC)cc3C(=O)O)nc3c(OC)c(C(N)=O)ccc32)c(C(=O)O)c1` [US12415785, Example 41], with 83 µM.
Compound `COc1c(C(N)=O)ccc2c1nc(-c1cc(Cl)ccc1-c1nn[nH]n1)n2CCn1c(-c2cc(Cl)ccc2-c2nn[nH]n2)nc2c(OC)c(C(N)=O)ccc21` [US12415785, Example 42] gave a Kd of 14.8 µM.
As for `COc1c(C(N)=O)ccc2c1nc(-c1c(F)cc(F)cc1-c1nn[nH]n1)n2CCn1c(-c2c(F)cc(F)cc2-c2nn[nH]n2)nc2c(OC)c(C(N)=O)ccc21` [US12415785, Example 43], the Kd came out at 0.096 µM.
As to `COc1c(C(N)=O)ccc2c1nc(-c1c(F)cc(F)cc1-c1n[nH]c(=O)o1)n2CCn1c(-c2c(F)cc(F)cc2-c2n[nH]c(=O)o2)nc2c(OC)c(C(N)=O)ccc21` [US12415785, Example 44], binding was put at a Kd of 0.423 µM.
To `COc1c(C(N)=O)ccc2c1nc(-c1c(F)cc(Cl)cc1-c1nn[nH]n1)n2CCn1c(-c2c(F)cc(Cl)cc2-c2nn[nH]n2)nc2c(OC)c(C(N)=O)ccc21` [US12415785, Example 46] belongs 0.025 µM; to `COc1c(C(N)=O)ccc2c1nc(-c1c(F)cccc1-c1nn[nH]n1)n2CCn1c(-c2c(F)cccc2-c2nn[nH]n2)nc2c(OC)c(C(N)=O)ccc21` [US12415785, Example 48], 0.03 µM.
`COc1c(C(N)=O)ccc2c1nc(-c1c(F)cccc1-c1n[nH]c(=O)o1)n2CCn1c(-c2c(F)cccc2-c2n[nH]c(=O)o2)nc2c(OC)c(C(N)=O)ccc21` [US12415785, Example 49] gave a dissociation constant (Kd) of 0.031 µM.
To `COc1c(C(N)=O)ccc2c1nc(-c1c(F)cc(Cl)cc1-c1n[nH]c(=O)o1)n2CCn1c(-c2c(F)cc(Cl)cc2-c2n[nH]c(=O)o2)nc2c(OC)c(C(N)=O)ccc21` [US12415785, Example 50] belongs 0.014 µM.
